Laboratory results published in patent publication US20040067853A1, “Sulfonamide derivative-containing agricultural and horticultural composition” (priority 2001, published 2004).

How the values were obtained:
Pyrenophora teres = experiment: Protective effect of Pyrenophora teres on barley seedlings (spray, protection value from lesion area ratio; Colby's equation for mixtures); type: in vivo
Description: (§1) Hereunder, the evaluation of each fungicide was carried out by converting the ratio into a protection value after measuring the lesion area ratio (in percentage). The protectin value was calculated by means of the equation as follows.
(§2) protection value=(1−(lesion area in the division treated with fungicide)/lesion area in the division not treated with fungicide))×100
(§3) An estimated protection value of a mixture of active ingredients was calculated according to the Colby's equation [R. S. Colby, Weeds 15, 20-22 (1967)] and compared with the experimental protection value.
(§4) wherein E is the estimated protection value (additive effect) which will be obtained when the active ingredients A and B are used in a mixture in concentrations a and b, respectively, x is the protection value obtained when the active ingredient A is used in a concentration a, and y is the protection value obtained when the active ingredient B is used in a concentration b. […] A protection value 0 means that the lesion area ratio of the plants in the test group is as large as that of the plants in the untreated control group. A protective value 100 means that the plants in the test group are free from the disease.
The supplied compound (that is, the compound to which number (No.) was attached in Table 1), and A (picoxystrobin), B (trifloxystrobin), C (pyraclostrobin), D (cresoxime methyl), E (epoxiconazole), F (flusilazole) and G (tebuconasole) shown in Table 31 were, alone or in a mixture form, dissolved into dimethylformamide (final concentration: 1% by weight). Thereto were added xylene (final concentration: 0.02% by weight) and Tween 20 (trade name) (final concentration: 0.02% by weight), and then the solution was diluted with water to have a desired effective component concentration (ppm). To this solution was added a spreading agent SINDAIN (trade name, made by Takeda Chemical Industries, Ltd.) containing 20% by weight of polyoxyethylene nonylphenyl ether and 12% by weight of calcium ligninsulfonate so as to have a final concentration of 0.05% by weight. Thus, a spray solution was prepared. The solution was sprayed, at a rate of 40 ml/pot, onto barley seedlings (cultural variety: Shiaga Hasseki No. 5) grown for 1 week in a greenhouse. After air drying, a suspension containing spores (5×10^5/ml) of Pyrenophora teres was sprayed and inoculated thereto at a rate of 2 ml/pot. After the inoculation, the seedlings were kept inside a high-humidity box having a temperature of 24° C. for 18 hours and then put into a room. After 9 days, the lesion area ratio on the treated leaves was investigated.

Alternaria mali = experiment: Prevention effect of Alternaria mali on apple seedlings (spray, protection value from lesion area ratio; Colby's equation for mixtures); type: in vivo
Description: as §1, §2, §3, §4
The supplied compound (that is, the compound to which number (No.) was attached in Table 1-29), and A (picoxystrobin), B (trifloxystrobin), and C (pyraclostrobin) shown in Table 30 were, alone or in a mixture form, dissolved into dimethylformamide (final concentration: 1% by weight). Thereto were added xylene (final concentration: 0.02% by weight) and Tween 20 (trade name) (final concentration: 0.02% by weight), and then the solution was diluted with water to have a desired effective component concentration (ppm). To this solution was added a spreading agent SINDAIN (trade name, made by Takeda Chemical Industries, Ltd.) containing 20% by weight of polyoxyethylene nonylphenyl ether and 12% by weight of calcium ligninsulfonate so as to have a final concentration of 0.05% by weight. Thus, a spray solution was prepared. The solution was sprayed, at a rate of 10 ml/pot, onto the apple seedlings (cultural variety: Star King Delicous) grown for 3 or 4 weeks in a greenhouse. After one day from the treatment, a suspension containing a 1% yeast extract, a 1% sucrose, and spores (5×10^5/ml) of Alternaria mali was sprayed and inoculated thereto at a rate of 1 ml/pot. After the inoculation, the trees were kept inside a high-humidity box having a temperature of 28° C. for 4 days. Thereafter, the lesion area ratio on the treated leaves was examined.

SMILES	Lesion area ratio (%) (Pyrenophora teres; 5.0 ppm active ingredient)	Protection value (Pyrenophora teres; 5.0 ppm active ingredient)	Lesion area ratio (%) (Alternaria mali; 6.3 ppm active ingredient)	Protection value (Alternaria mali; 6.3 ppm active ingredient)	Lesion area ratio (%) (Alternaria mali; 25.0 ppm active ingredient)	Protection value (Alternaria mali; 25.0 ppm active ingredient)	Lesion area ratio (%) (Alternaria mali; 100.0 ppm active ingredient)	Protection value (Alternaria mali; 100.0 ppm active ingredient)	Lesion area ratio (%) (Pyrenophora teres; 0.2 ppm active ingredient)	Protection value (Pyrenophora teres; 0.2 ppm active ingredient)	further results
CC(C)(C)C(O)(CCc1ccc(Cl)cc1)Cn1cncn1 (centres unmarked) [tebuconasole]	22.5	55									
CO/N=C(/C(=O)OC)c1ccccc1CO/N=C(\C)c1cccc(C(F)(F)F)c1 [trifloxystrobin, methyl-(E)-methoxyimino-{(E)-α-[1-(α,α,α-trifluoro-m-tolyl)ethylideneaminooxy]-o-tolyl}acetate]			61.7	0	4.7	90	2.2	95	27.5	45	
CO/N=C(/C(=O)OC)c1ccccc1COc1ccccc1C [cresoxime methyl]	27.5	45									
CCN(c1ccc(Cl)cc1[N+](=O)[O-])S(=O)(=O)c1ccc(C)cc1 [Compound No. 289, 4′-chloro-N-ethyl-2′-nitro-p-toluenesulfonanilide]			3.5	93							melting point: 132.5 to 134 °C; Lesion area ratio (%) (Alternaria mali; 0.4 ppm active ingredient): 19.8%; Protection value (Alternaria mali; 0.4 ppm active ingredient): 58; Lesion area ratio (%) (Alternaria mali; 1.6 ppm active ingredient): 19.5%; Protection value (Alternaria mali; 1.6 ppm active ingredient): 59; Lesion area ratio (%) (Pyrenophora teres; 0.5 ppm active ingredient): 17.5%; Protection value (Pyrenophora teres; 0.5 ppm active ingredient): 65
CO/C=C(/C(=O)OC)c1ccccc1COc1cccc(C(F)(F)F)n1 [picoxystrobin, methyl (E)-3-mthoxy-2-{2-[6-(trifluoromethyl)-2-pyridyloxymethyl]phenyl}acrylate]			11.5	76	9.5	80	6.2	87	17.5	65	
C[Si](Cn1cncn1)(c1ccc(F)cc1)c1ccc(F)cc1 [flusilazole]	25.0	50									
COC(=O)N(OC)c1ccccc1COc1ccn(-c2ccc(Cl)cc2)n1 [pyraclostrobin, methyl N-{2-[1-(4-chlorophenyl)-1-H-pyrazol-3-yloxymethyl]phenyl}(N-methoxy)carbamate]			11.0	77	11.0	77	3.7	92	12.5	75	
Fc1ccc([C@]2(Cn3cncn3)O[C@H]2c2ccccc2Cl)cc1 (racemic) [epoxiconazole, (2RS,3SR)-1-[3-(2-chlorophenyl)-2,3-epoxy-2-(4-fluorophenyl)propyl]-1H-1,2,4-triazole]	15.0	70									
